Data: patent US8637521B2, “Substituted piperazin-2,5-diones and their use as multifunctional bioactive compounds” (priority 2006, dated 2014)
Several values for one entry are separate records, joined by “and”; a condition that tells them apart may be missing. Equal values may be shown once.

Key:
[1] = system: CFU-S population in the bone marrow; assay: Spleen colony formation (CFU-S) by bone marrow cells of peptide-treated intact donor mice; assay type: in vivo, (CBA×C57 B1) F1 mice; conditions: for Colony count CFU-8 - S per 10^5 cells M ± M: control 11.2 ± 0.4; for Colony count CFU-8 - S per 10^5 cells M ± m: control 9.9 ± 0.7
Method: The effect of tested substances on intact bone marrow was studied in vivo. […] Two days after administration of preparation, the mice were killed. Bone marrow suspension was prepared and injected intravenously to lethally irradiated mice. The colony forming activity was evaluated at day 8. Test animals were (CBA×C57 B1) F1 mice (30 mice per trial, average from 3 tests).

[2] = system: Anti-OVA antibody titers; assay: Adjuvant activity, anti-OVA antibody titers by ELISA (Example 8); assay type: in vivo, Balb/c mice; conditions: for Anti-protein antibody titer (pooled sera) / Stimulation index / Anti-protein antibody titer (for individual sera): Table 7
Method: Adjuvant activity was tested on 11 groups of Balb/c mice (obtained from Stolbovaya Breeding Station). Each group consisted of 7 animals. Three immunizations were performed as follows:
• Group 1—ovalbumin 25 micrograms per animal (Mouse Nos. 1 to 7) • Group 2—ovalbumin 25 micrograms per animal+CFA (Complete Freund's adjuvant) (Mouse Nos. 8 to 14) • Group 3—ovalbumin 25 micrograms per animal+adjuvant of compound 33a 100 micrograms per animal (Mouse Nos. 15 to 21) • Group 4—ovalbumin 25 micrograms per animal+adjuvant of compound 33a 10 micrograms per animal (Mouse Nos. […]) • Group 5—ovalbumin 25 micrograms per animal+adjuvant of compound 33a 1 microgram per animal (Mouse Nos. […]) • Group 6—ovalbumin 25 micrograms per animal+adjuvant of compound 33b 100 micrograms per animal (No. 36 to 42) • Group 7—ovalbumin 25 micrograms per animal+adjuvant of compound 33b 10 micrograms per animal (Mouse Nos. 43 to 49) • Group 8—ovalbumin 25 micrograms per animal+adjuvant of compound 33b 1 microgram per animal (Mouse Nos. 50 to 56) • Group 9—ovalbumin 25 micrograms per animal+adjuvant of compound 17 100 micrograms per animal (Mouse Nos. 57 to 63) • Group 10—ovalbumin 25 micrograms per animal+adjuvant of compound 1710 micrograms per animal (Mouse Nos. 64 to 70) • Group 11—ovalbumin 25 micrograms per animal+adjuvant of compound 171 microgram per animal (Mouse Nos. 71 to 77) Second Immunization:
The same set 14 days after first immunization by injection of 12.5 micrograms of ovalbumin/mouse to mouse nos. 1 to 77.
The same set 28 days after first immunization by injection of 12.5 micrograms of ovalbumin/mouse to mouse nos. 1 to 77.
On day 35 after first immunization, blood samples from each mouse were collected.
OVA (10 micrograms/ml) solution in 0.05 M sodium carbonate buffer (pH 9.5) was added to plate wells, 0.1 ml per well and incubated at 4° C. for 16 hours. The OVA solution was then removed and the plate was washed 4 times with PBS containing 0.05% Tween-20. Such washing was performed after each incubation stage. Serial twofold dilutions of sera (starting from 1:100 or 1:1000) were added to the wells, 0.1 ml per well and incubated at 37° C. for 1 hour followed by incubation (1 hour, 37° C.) with HRP-conjugated goat anti-mouse IgG antibodies (0.1 ml, 1 mg/ml in PBS) and then with a 0.1 mL substrate solution −0.05% H2O2 and 0.05% o-phenylene diamine in 0.05M sodium citrate buffer with a pH of 4.5. The reaction was stopped by adding 100 μl of 12.5% H2SO4. Absorbance was measured at a wavelength of 492 nm using a Multiscan Plus MKII (Flow Laboratories, Great Britain). Significant anti-protein antibody titer (for individual sera) was assessed as the serum dilution produced an absorbance value of more than 0.1 ODU and the minimum exceeds three times the control level. The antibody titer was presented and −log of dilution (FIGS. 2 and 3). The stimulation index for pooled sera was calculated by dividing the test pooled sera dilution producing OD=1 by the dilution of pooled sera from mice immunized without the adjuvant, producing OD=1. The results of the adjuvant activities of cyclo-L-Ala-L-Glu-(L-Trp-OH) (Compound 17), cyclo-L-Lys(N-acetyl-Glycosamine-N-acetyl-muramil)-L-Glu-(L-Trp-OH) (Compound 33a) and cyclo-D-Lys(N-acetyl-Glycosamine-N-acetyl-muramil)-D-Glu-(L-Trp-OH) (Compound 33b) are shown in Table 7 and the adjuvant activities of cyclo [L-Lys(Palmitoyil)-L-Glu(D-Trp-OH)] (Compound 26a) and cyclo [D-Lys(Palmitoyil)-D-Glu(D-Trp-OH)] (Compound 26b) are shown in Table 8 as well as in FIG. 4 which includes the results of the adjuvant activities of cyclo-L-Lys-L-Glu-(L-Trp-OH) (compound 19). It is noted that the peptides of compounds 26a and 26b are soluble in 0.1% NH4OH at a concentration of 1 mg per 1 to 2 ml.

[3] = Table 3, 0.2 microgram per mouse per os
[4] = 100 μg per animal, no adjuvant 4.5
[5] = 100 μg per animal, no adjuvant = 1
[6] = OVA + adjuvant 1 μg per animal, −log of dilution
[7] = OVA + adjuvant 10 μg per animal, −log of dilution
[8] = OVA + adjuvant 100 μg per animal, titer as −log of dilution, one value per mouse
[9] = Table 2, donor treated i/p, colonies day 8
[10] = Table 3, 0.2 microgram per mouse i/p
[11] = Table 3, 2.0 microgram per mouse per os
[12] = Table 3, 20.0 microgram per mouse per os
[13] = Table 3, 200.0 microgram per mouse per os

## COC(=O)[C@@H](Cc1c[nH]c2ccccc12)NC(=O)CC[C@H]1NC(=O)[C@@H](C)NC1=O [Compound 1, Cyclo-D-Ala-D-Glu-(D-Trp-OMe)]
[1]; Table 2, donor treated per os
  % suppression: 40%
  Colony count CFU-8 - S per 10^5 cells M ± M: 7.4 ± 0.4 per 10^5 cells
[1]; Table 2, donor treated s/c
  % suppression: 47%
  Colony count CFU-8 - S per 10^5 cells M ± M: 6.8 ± 0.4 per 10^5 cells
[1]; [3]
  % suppression: 42%
  Colony count CFU-8 - S per 10^5 cells M ± m: 6.5 ± 0.5 per 10^5 cells

## COC(=O)[C@@H](Cc1c[nH]c2ccccc12)NC(=O)C[C@H]1NC(=O)[C@@H](C)NC1=O [Compound 12, Cyclo-D-Ala-D-Asp-(D-Trp-OMe)]
[1]; [3]
  % suppression: 28%
  Colony count CFU-8 - S per 10^5 cells M ± m: 8.4 ± 0.6 per 10^5 cells

## C[C@H]1NC(=O)[C@@H](CC(=O)N[C@H](Cc2c[nH]c3ccccc23)C(=O)O)NC1=O [Compound 13, Cyclo-D-Ala-D-Asp-(D-Trp-OH)]
[1]; Table 2, donor treated per os
  % suppression: 26.5%
  Colony count CFU-8 - S per 10^5 cells M ± M: 9.0 ± 0.2 per 10^5 cells

## NCCCCC1NC(=O)C(CCC(=O)NC(Cc2c[nH]c3ccccc23)C(=O)O)NC1=O [Compound 19, cyclo-L-Lys-L-Glu-(L-Trp-OH)]
[2]
  adjuvant activity (FIG. 4), doses at which active: active at 100 μg/kg

## CC(=O)N[C@H]1[C@H](O[C@H]2[C@H](O[C@H](C)C(=O)NCCCC[C@@H]3NC(=O)[C@H](CCC(=O)N[C@@H](Cc4c[nH]c5ccccc45)C(=O)O)NC3=O)[C@@H](NC(C)=O)C(O)O[C@@H]2CO)O[C@H](CO)[C@@H](O)[C@@H]1O (stereo partly drawn) [Compound 33a, cyclo-L-Lys(N-acetyl-Glycosamine-N-acetyl-muramil)-L-Glu-(L-Trp-OH)]
[2]
  adjuvant activity (FIG. 4), doses at which active: active at 100 μg/kg
[2]; 1 μg per animal
  Anti-protein antibody titer (pooled sera): 4.8
  Stimulation index: 2.9
[2]; 10 μg per animal
  Anti-protein antibody titer (pooled sera): 5.1
  Stimulation index: 3.5
[2]; [4]
  Anti-protein antibody titer (pooled sera): 5.5
[2]; [5]
  Stimulation index: 6.8
[2]; [6]
  Anti-protein antibody titer (for individual sera): 5.1 (2×) and 4.2 and 5.4 (3×) and 4.1
[2]; [7]
  Anti-protein antibody titer (for individual sera): 4.4 and 5.7 (4×) and 4.7 and 5.4
[2]; [8]
  Anti-protein antibody titer (for individual sera): 4.8 (2×) and 5.4 and 5.1 (2×) and 6.4 and 5.7

## CC(=O)N[C@H]1[C@H](O[C@H]2[C@H](O[C@H](C)C(=O)NCCCC[C@H]3NC(=O)[C@@H](CCC(=O)N[C@@H](Cc4c[nH]c5ccccc45)C(=O)O)NC3=O)[C@@H](NC(C)=O)C(O)O[C@@H]2CO)O[C@H](CO)[C@@H](O)[C@@H]1O (stereo partly drawn) [Compound 33b, cyclo-D-Lys(N-acetyl-Glycosamine-N-acetyl-muramil)-D-Glu-(L-Trp-OH)]
[2]
  adjuvant activity (FIG. 4), doses at which active: not an active compound
[2]; 1 μg per animal
  Anti-protein antibody titer (pooled sera): 5.1
  Stimulation index: 3.5
[2]; 10 μg per animal
  Anti-protein antibody titer (pooled sera): 5.4
  Stimulation index: 4.1
[2]; [4]
  Anti-protein antibody titer (pooled sera): 4.8
[2]; [5]
  Stimulation index: 2.9
[2]; [6]
  Anti-protein antibody titer (for individual sera): 5.2 and 4.8 (4×) and 4.5 and 5.1
[2]; [7]
  Anti-protein antibody titer (for individual sera): 4.8 and 4.5 and 5.2 and 5.1 and 5.4 (2×) and 4.3
[2]; [8]
  Anti-protein antibody titer (for individual sera): 4.8 and 5.4 (3×) and 4.2 and 5.1 (2×)

## CC1NC(=O)C(CC(=O)NC(Cc2c[nH]c3ccccc23)C(=O)[O-])NC1=O.[Na+] (centres unmarked) [cyclo-DAla-DAsp-(DTrp-ONa)]
[1]; [3]
  % suppression: 55%
  Colony count CFU-8 - S per 10^5 cells M ± m: 6.8 ± 0.8 per 10^5 cells

## C[C@H]1NC(=O)[C@@H](CCC(=O)N[C@H](Cc2c[nH]c3ccccc23)C(=O)[O-])NC1=O.[Na+] [cyclo-DAla-DGlu-(DTrp-ONa)]
[1]; Table 2, donor treated i/p
  % suppression: 70%
[1]; [9]
  Colony count CFU-8 - S per 10^5 cells M ± M: 5.0 ± 0.3 per 10^5 cells
[1]; Table 2, donor treated per os
  % suppression: 58%
  Colony count CFU-8 - S per 10^5 cells M ± M: 6.0 ± 0.7 per 10^5 cells
[1]; [3]
  % suppression: 59%
  Colony count CFU-8 - S per 10^5 cells M ± m: 5.3 ± 0.6 per 10^5 cells

## O=C(CC[C@H]1NC(=O)[C@@H](Cc2ccccc2)NC1=O)N[C@H](Cc1c[nH]c2ccccc12)C(=O)[O-].[Na+] [cyclo-DPhe-DGlu-(DTrp-ONa)]
[1]; Table 2, donor treated per os
  % suppression: 28%
  Colony count CFU-8 - S per 10^5 cells M ± M: 8.1 ± 0.4 per 10^5 cells
[1]; [3]
  % suppression: 28%
  Colony count CFU-8 - S per 10^5 cells M ± m: 8.1 ± 0.4 per 10^5 cells

## O=C(CCC1NC(=O)C(Cc2ccc(O)cc2)NC1=O)NC(Cc1c[nH]c2ccccc12)C(=O)O (centres unmarked) [cyclo-DTyr-DGlu-(DTrp-OH)]
[1]; Table 2, donor treated per os
  % suppression: 44%
  Colony count CFU-8 - S per 10^5 cells M ± M: 6.3 ± 0.9 per 10^5 cells

## O=C(CCC1NC(=O)C(Cc2ccc(O)cc2)NC1=O)NC(Cc1c[nH]c2ccccc12)C(=O)[O-].[Na+] (centres unmarked) [cyclo-DTyr-DGlu-(DTrp-ONa)]
[1]; [3]
  % suppression: 44%
  Colony count CFU-8 - S per 10^5 cells M ± m: 6.3 ± 0.9 per 10^5 cells

## CC1NC(=O)C(CCC(=O)NC(Cc2c[nH]c3ccccc23)C(=O)[O-])NC1=O.[Na+] (centres unmarked) [cyclo-LAla-LGlu-(DTrp-ONa)]
[1]; Table 2, donor treated i/p
  % suppression: 20%
[1]; [9]
  Colony count CFU-8 - S per 10^5 cells M ± M: 8.8 ± 0.2 per 10^5 cells

## γDGlu-DTrp [Thymodepressin, reference compound]
[1]; Table 2, donor treated i/p
  % suppression: 55%
[1]; [9]
  Colony count CFU-8 - S per 10^5 cells M ± M: 6.3 ± 0.6 per 10^5 cells
[1]; [10]
  % suppression: 51%
  Colony count CFU-8 - S per 10^5 cells M ± m: 5.7 ± 0.4 per 10^5 cells
[1]; [3]
  % suppression: 0%
  Colony count CFU-8 - S per 10^5 cells M ± m: 10.2 ± 0.3 per 10^5 cells
[1]; [11]
  % suppression: 33%
  Colony count CFU-8 - S per 10^5 cells M ± m: 8.0 ± 0.5 per 10^5 cells
[1]; [12]
  % suppression: 41%
  Colony count CFU-8 - S per 10^5 cells M ± m: 6.4 ± 0.5 per 10^5 cells
[1]; [13]
  % suppression: 52%
  Colony count CFU-8 - S per 10^5 cells M ± m: 5.1 ± 0.2 per 10^5 cells
[1]; text statement on Table 2
  effect on CFU-S population in the bone marrow of intact mice: decreased the CFU-S population in the bone marrow
